From patent publication US20220047507A1, “MELFLUFEN DOSAGE REGIMENS FOR CANCER” (ONCOPEPTIDES AB, priority 2015, published 2022)

Columns and labels:
[1] = tested on: relapsed-refractory multiple myeloma (RRMM) patients; assay: Efficacy in patients with RRMM, Example 2a; type: in vivo, human
Protocol: Example 2: An open label single arm extension on the dose of 40 mg over 30 minutes of Example 1. Intravenous melflufen was administered over 30 minutes on Day 1 of a 21-day cycle or 28-day cycle (in combination with 40 mg dexamethasone (oral or intravenous) treatment on Days 1, 8 and 15) for at least 2 cycles, and up to the stated number of cycles. The cycle length was extended during the Example 2 Clinical Trial from 21 to 28 days per a protocol amendment to allow for a better recovery of neutrophils and thrombocytes before a new cycle is initiated.
Example 2a results are from a data cut-off of time point (a). Example 2b results are from a data cut-off of time point (bi) for the efficacy data, which was approximately 12 months after time point (a); and from a data cut-off of time point (bii) for the safety data, which was approximately 10 months after time point (a).
By the data cut-off point for Example 2a, 38 patients with relapsing MM had been dosed with 40 mg of melflufen hydrochloride (the 40 mg dosage excludes the mass of the salt component) administered over 30 minutes every 3 weeks (21 days) in combination with weekly dexamethasone (day 1, 8 and 15). 162 doses of melflufen were administered in total. The median number of cycles initiated was 3 (1-13) and the median duration of treatment was 13 weeks (2-51). The mean dose intensity was 96% (77-100). By the data cut-off point, ten patients were still in treatment, 2 had completed treatment and 26 patients discontinued from treatment (15 due to AEs, 8 due to PD, 2 deaths and 1 for other reasons). Twenty-seven patients were still in the study (10 patients in treatment and 17 in follow-up), while 11 patients were off study (8 patients due to death, 1 due to PD, 1 withdrew consent and 1 lost in follow-up).
Twenty-seven patients were evaluable for efficacy (per the protocol, these patients had received at least two cycles of melflufen and had adequate follow-up assessments). 11 patients were not evaluable for response due to rapid early progression (7), early termination due to adverse events (3) or too early to assess (1).

[2] = tested on: different human tumors, including MM; conditions: at seemingly comparable toxicity; cited from earlier work
clinical = conditions: human, in vivo, iv; for AUC(0-t): AUC0-4; for AUC(0-inf): AUCinf
[3] = Evaluable ≥ 2 cycles, n 27, listed as Melflufen
[4] = Number of refractory agents 0, Example 2a (n = 27)
[5] = Number of refractory agents 1, Example 2a (n = 27)
[6] = Number of refractory agents 2, Example 2a (n = 27)
[7] = Number of refractory agents 3, Example 2a (n = 27)
[8] = Number of refractory agents 4, Example 2a (n = 27)
[9] = Pomalidomide refractory, Example 2a, 27 evaluable
[10] = refractory status None, Example 2a, 27 evaluable
[11] = refractory status PI + IMiD + Alkylator, Example 2a, 27 evaluable

CCOC(=O)[C@H](Cc1ccc(F)cc1)NC(=O)[C@@H](N)Cc1ccc(N(CCCl)CCCl)cc1.Cl [melflufen, L-Melphalanyl-4-fluoro-L-phenylalanine ethyl ester]
Clinical Benefit Rate (CBR) ([1]; Evaluable ≥ 1 cycle, n 35): 43%
Minimal Response (MR), patients ([1]; Evaluable ≥ 1 cycle, n 35): 4
Overall Response Rate (ORR) ([1]; Evaluable ≥ 1 cycle, n 35): 31%
Stable Disease (SD), patients ([1]; Evaluable ≥ 1 cycle, n 35): 12
Very Good Positive Response (PR), patients ([1]; Evaluable ≥ 1 cycle, n 35): 2
Clinical Benefit Rate (CBR) ([1]; Evaluable ≥ 2 cycles, n 27): 56%
Minimal Response (MR), patients ([1]; Evaluable ≥ 2 cycles, n 27): 4
Overall Response Rate (ORR) ([1]; Evaluable ≥ 2 cycles, n 27): 41%
Positive Response (PR), patients ([1]; Evaluable ≥ 2 cycles, n 27): 9
Progressive Disease (PD), patients ([1]; Evaluable ≥ 2 cycles, n 27): 1
Stable Disease (SD), patients ([1]; Evaluable ≥ 2 cycles, n 27): 11
Very Good Positive Response (PR), patients ([1]; Evaluable ≥ 2 cycles, n 27, 40 mg over 30 min + dexamethasone): 2
Clinical Benefit Rate (CBR) [1, 3]: 56%
Overall Response Rate (ORR) [1, 3]: 41%
median duration of response (DOR) ([1]; Example 2a, 4 events in 11 responding patients): 9.6 months
median progression free survival (PFS) ([1]; Example 2a, 13 events in 27 patients): 9.4 months
hazard ratio for melflufen compared to pomalidomide (PFS) ([1]; Example 2a, all treated n=38 vs published pomalidomide trial): 0.68 (0.44-1.05)
CBR(≥MR) [1, 4]: (100) %
ORR (≥PR) [1, 4]: (100) %
CBR(≥MR) [1, 5]: (54) %
ORR (≥PR) [1, 5]: (38) %
CBR(≥MR) [1, 6]: (57) %
ORR (≥PR) [1, 6]: (43) %
CBR(≥MR) [1, 7]: (63) %
ORR (≥PR) [1, 7]: (44) %
CBR(≥MR) [1, 8]: (71) %
ORR (≥PR) [1, 8]: (43) %
CRR (≥MR) [1, 9]: (50) %
ORR (≥PR) [1, 9]: (30) %
reduction in risk of death over 16 months compared to pomalidomide ([1]; RRMM patient population, Example 2a): 32%
CRR (≥MR) ([1]; Triple refractory (2 PI/ImiD + 1 ImiD/PI), Example 2a, 27 evaluable): (60) %
best response of minimal response (MR) or better, n patients ([1]; of 27 evaluable): 15
confirmed PR, n patients ([1]; of 27 evaluable): 11
CRR (≥MR) ([1]; refractory status Alkylator, Example 2a, 27 evaluable): (64) %
CRR (≥MR) ([1]; refractory status IMiD, Example 2a, 27 evaluable): (52) %
CRR (≥MR) [1, 10]: (100) %
ORR (≥PR) [1, 10]: (100) %
CRR (≥MR) [1, 11]: (44) %
ORR (≥PR) [1, 11]: (33) %
CRR (≥MR) ([1]; refractory status PI + IMiD, Example 2a, 27 evaluable): (44) %
CRR (≥MR) ([1]; refractory status PI, Example 2a, 27 evaluable): (47) %
antitumor activity over equimolar dosage of melphalan [2]: superior antitumor activity
AUC(0-t) (clinical; 15 mg): 13.5 ng·h/mL
AUC(0-inf) (clinical; 15 mg): 16.3 ng·h/mL
Cmax (clinical; 15 mg): 39 ng/mL
half-life (clinical; 15 mg, T1/2): 13 min
tmax (clinical; 15 mg): 15 min
AUC(0-t) (clinical; 25 mg): 40.8 ng·h/mL
AUC(0-inf) (clinical; 25 mg): 40.8 ng·h/mL
Cmax (clinical; 25 mg): 102 ng/mL
half-life (clinical; 25 mg, T1/2): 4.6 min
tmax (clinical; 25 mg): 12 min
AUC(0-t) (clinical; 40 mg): 89.3 ng·h/mL
AUC(0-inf) (clinical; 40 mg): 89.3 ng·h/mL
Cmax (clinical; 40 mg): 222 ng/mL
half-life (clinical; 40 mg, T1/2): 1.1 min
tmax (clinical; 40 mg): 15 min
AUC(0-t) (clinical; 55 mg): 102 ng·h/mL
AUC(0-inf) (clinical; 55 mg): 102 ng·h/mL
Cmax (clinical; 55 mg): 245 ng/mL
half-life (clinical; 55 mg, T1/2): 2.7 min
tmax (clinical; 55 mg): 25 min
half-life (clinical; half-life of melflufen concentrations after end of infusion): 3 to 5 min
